Assay [1] concerns FimH. Also on record: method as in PMID 18446213. The conditions noted are these: cited from earlier work.
Assay [2] deals with F17bG lectin domain (Escherichia coli, UniProt Q47200). Conditions: array version 2, exp. 400. Here is the method:
A microarray presenting 264 different glycans (mammalian printed array version 2) was used to evaluate if the F17G variant lectin domains differ in the range of glycan receptors that they recognize, thereby establishing tropism. The microarray was set up within the Consortium for Functional Glycomics (CFG) ([20], and supplemental data). Binding of F17G (200 µg/mL) was detected using anti-F17G polyclonal rabbit IgG (10 µg/mL), followed by fluorescently labelled goat anti-rabbit polyclonal antibodies (IgG-488, 5 µg/mL).
(§1) A microarray presenting 264 different glycans (mammalian printed array version 2 from the CFG, experiment 400) was used to evaluate whether the F17G variant lectin domains differ in the range of glycan receptors that they can recognize, thereby establishing strain-dependent tropism. […] The glycan array screening has been repeated for F17aG only on printed array version 4.1 (experiment 2053) (Figure 1).
Printed array version 2 at the Consortium for Functional Glycomics was used for glycan array screening of the variant F17G receptor binding domains. Slides were printed, with six replicates for each glycan, using glycan spotting concentrations of 100 μM, at the Consortium Carbohydrate Synthesis/Protein Expression Core D located at the Scripps Research Institute onto Schott Nexterion H slides (Schott Cat. No. 1070936B). Slide conditioning: preprinted slides were soaked in deionized water for 5 minutes at room temperature and dried under a stream of nitrogen. TSM buffer (20 mM Tris-HCl, pH 7.4, or MOPS 20 mM; 150 mM NaCl; 2 mM CaCl2, 2 mM MgCl2) was used as wash buffer (TSM buffer + 0.05% Tween 20) or binding buffer (TSM buffer + 0.05% Tween 20 + 1% BSA). (1) F17G was diluted to 200 μg/mL (Figure 1) in TSM binding buffer. (2) 50 μL of F17G was applied to the printed surface and coverslipped. (3) The slide was incubated, protected from light, in a humidified chamber for 1 hour at RT. (4) The slide was washed once in TSM wash buffer. 50 μL of the anti-F17G (10 μg/mL) polyclonal rabbit IgG were applied, coverslipped and incubated for 1 h at RT. (5) The slide was washed once in TSM wash buffer. Fifty μL of fluorescently labelled secondary goat anti-rabbit polyclonal antibodies (IgG-488, 5 µg/mL) were applied, coverslipped and incubated for 1 h at RT. (6) Slide was removed, followed by the coverslip, and washed for 10 s each in TSM wash buffer, TSM wash buffer lacking Tween 20, and deionized water. The slide was dried under a stream of nitrogen. (7) The binding image was read in a Perkin Elmer Microscanarray XL4000 scanner and tiff file of image stored. (8) Image analysis was performed using Imagene (V.6) image analysis software. (9) Raw data results files were generated in Excel format and uploaded to the Consortium database as .dat files. (10) Imagene data was uploaded to the database as .txt files.

Assay [3] concerns FedF lectin domain. The assay can be described thus: CFG glycan array version 2 (experiment 399), FedF lectin domain. The format is binding, Escherichia coli. Conditions: CFG glycan array experiment 399; FedF 100 μg/mL. The source says:
The most highly, triple, sulfated disaccharide (1) is here the best binder: Galβ1,4GlcNAc sulfated at positions 3', 6' and 6 (Table 3). Sulfation of the O6 hydroxyl (2) of GlcNAc is important, as well as N-acetylation on its position 2 (3) because the lactose form has lower affinity. Monosulfation on the non-reducing end galactose (one ion at either 3', 6' or 4') and lack of sulfation at the reducing end GlcNAc each decrease the fluorescence signal dramatically.

Assay [4] has as its target F17aG lectin domain (Escherichia coli, UniProt Q99003). The conditions noted are these: array version 4.1, exp. 2053.
Text: With mammalian printed array version 4.1, a new evaluation parameter was taken into account, namely % CV = 100 × Std. Dev/Mean. The highest and the lowest point from each set of six replicates have been removed so the average is of 4 values rather than 6. This eliminates some of the false hits that contain a single very high or low point. Thus, points with a high % CV should be considered suspect. […] This comparison provides information on binding specificity. The CFG glycan array data are available containing searchable results by means of flex-based data browser tools.
as §1

Structures are written as SMILES.

F17aG lectin domain, sequence (Q99003 23-199): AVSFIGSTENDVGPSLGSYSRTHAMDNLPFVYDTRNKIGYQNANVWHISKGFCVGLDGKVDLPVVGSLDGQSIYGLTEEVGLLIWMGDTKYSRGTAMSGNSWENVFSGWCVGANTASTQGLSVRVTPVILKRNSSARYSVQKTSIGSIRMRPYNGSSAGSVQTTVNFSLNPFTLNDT
F17bG lectin domain, sequence (Q47200 23-199): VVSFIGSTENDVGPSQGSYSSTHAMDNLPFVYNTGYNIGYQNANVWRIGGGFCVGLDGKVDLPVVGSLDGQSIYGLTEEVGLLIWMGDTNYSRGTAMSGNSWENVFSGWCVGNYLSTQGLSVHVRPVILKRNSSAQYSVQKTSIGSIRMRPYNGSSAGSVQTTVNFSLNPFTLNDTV

With `CC(=O)N[C@H]1[C@H](O[C@H]2[C@H](O)[C@@H](NC(C)=O)C(O)O[C@@H]2CO)O[C@H](CO)[C@@H](O[C@@H]2O[C@H](CO[C@H]3O[C@H](CO)[C@@H](O)[C@H](O)[C@@H]3O)[C@@H](O)[C@H](O[C@H]3O[C@H](CO)[C@@H](O)[C@H](O)[C@@H]3O)[C@@H]2O)[C@@H]1O` (stereo partly shown) [oligomannose-3], the “increased binding compared to α-D-mannose” value in assay [1] is reported as 100 fold.

Turning to `CC(=O)NC1C(O)OC(COS(=O)(=O)O)C(OC2OC(CO)C(O)C(OS(=O)(=O)O)C2O)C1O` (stereo not shown) [[3OSO3]Galβ1,4[6OSO3]GlcNAc], the “Rank among binders on CFG array, F17bG (variant b)” value in assay [2] came out at 28th best binder. For the same compound, the “RFU (averaged Relative Fluorescence Units for the six replicates), FedF lectin domain” value in assay [3] is listed as 6,806 RFU. For the same compound, the “Rank among binders on CFG array, F17aG” value in assay [4] is reported as “tenth best binder”.

The values are drawn from article PMC3960879 (Biology, 2013).
